Source: US12582641B2, “Sulfur-containing compound based on glutarimide skeleton and application thereof” (SHANGHAITECH UNIVERSITY, priority 2019, dated 2026)

The molecules below were run on MM.1S cells (assay: Proliferation inhibition (IC50) in MM.1S cells, cell viability assay). Conditions: Homo sapiens, MM1.S, 72 h, read-out: IC50 (nM), proliferation inhibitory activity of MM.1S cells (half inhibitory concentration).

SMILES | IC50 [nM]
O=C1CCC(N2Cc3c(SCc4ccc(CCCN5CCCCC5)cc4)cccc3C2=O)C(=O)N1 (stereo not shown) [SIAIS1227043, 3-(1-oxo-4-((4-(3-(piperidin-1-yl)propyl)benzyl)thio)isoindolin-2-yl)piperidine-2,6-dione] | 0.024 ± 0.006
O=C1CCC(N2Cc3c(SCCCCCNC45CC6CC(CC(C6)C4)C5)cccc3C2=O)C(=O)N1 (stereo not shown) [SIAIS1221117, 3-(4-((5-((adamantan-1-yl)amino)pentyl)thio)-1-oxoisoindolin-2-yl)piperidine-2,6-dione] | 0.06
O=C1CCC(N2Cc3c(SCCCCCCCNCC4CCCCC4)cccc3C2=O)C(=O)N1 (stereo not shown) [SIAIS1222199, 3-(4-((7-((cyclohexylmethyl)amino)heptyl)thio)-1-oxoisoindolin-2-yl)piperidine-2,6-dione] | 0.062
O=C1CCC(N2Cc3c(SCCCCCCNC45CC6CC(CC(C6)C4)C5)cccc3C2=O)C(=O)N1 (stereo not shown) [SIAIS1220177, 3-(4-((6-((adamantan-1-yl)amino)hexyl)thio)-1-oxoisoindolin-2-yl)piperidine-2,6-dione] | 0.041 ± 0.018
CCN(CC)CCCCCSc1cccc2c1CN(C1CCC(=O)NC1=O)C2=O (stereo not shown) [SIAIS1216139, 3-(4-((5-(diethylamino)pentyl)thio)-1-oxoisoindolin-2-yl)piperidine-2,6-dione] | 4.06 ± 0.64
O=C1CCC(N2Cc3c(SCc4nc(CNC5CCCCC5)cs4)cccc3C2=O)C(=O)N1 (stereo not shown) [SIAIS355003, 3-(4-(((4-((cyclohexylamino)methyl)thiazol-2-yl)methyl)thio)-1-oxoisoindolin-2-yl)piperidine-2,6-dione] | 0.75 ± 0.1
O=C1CCC(N2Cc3c(SCCCCCCC(=O)NC4C5CC6CC(C5)CC4C6)cccc3C2=O)C(=O)N1 (stereo not shown) [SIAIS1220199, N-(adamantan-2-yl)-7-((2-(2,6-dioxopiperidin-3-yl)-1-oxoisoindolin-4-yl)thio)heptanamide] | 0.026 ± 0.001
O=C1CCC(N2Cc3c(SCCCCCN4CCOCC4)cccc3C2=O)C(=O)N1 (stereo not shown) [SIAIS1216061, 3-(4-((5-morpholinopentyl)thio)-1-oxoisoindolin-2-yl)piperidine-2,6-dione] | 2.52 ± 0.22
O=C1CCC(N2Cc3c(SCCCCCCCCN4CCN(CCCCCCCCSc5cccc6c5CN(C5CCC(=O)NC5=O)C6=O)CC4)cccc3C2=O)C(=O)N1 (stereo not shown) [SIAIS1220061, 3,3′-(((piperazine-1,4-diylbis(octane-8,1-diyl))bis(sulfanediyl))bis(1-oxoisoindoline-4,2-diyl))bis(piperidine-2,6-dione)] | 0.49
CC1(C)CCN(Cc2ccc(CSc3cccc4c3CN(C3CCC(=O)NC3=O)C4=O)cc2)CC1 (stereo not shown) [SIAIS1227113, 3-(4-((4-((4,4-dimethylpiperidin-1-yl)methyl)benzyl)thio)-1-oxoisoindolin-2-yl)piperidine-2,6-dione] | 0.03 ± 0.01
CCN(CC)CCCCCCCCSc1cccc2c1CN(C1CCC(=O)NC1=O)C2=O (stereo not shown) [SIAIS1216147, 3-(4-((8-(diethylamino)octyl)thio)-1-oxoisoindolin-2-yl)piperidine-2,6-dione] | 0.19 ± 0.04
O=C1CCC(N2Cc3c(SCCCCCCNC4CCCCC4)cccc3C2=O)C(=O)N1 (stereo not shown) [SIAIS1220183, 3-(4-((6-(cyclohexylamino)hexyl)thio)-1-oxoisoindolin-2-yl)piperidine-2,6-dione] | 0.197
CN1CCN(CCc2ccc(CSc3cccc4c3CN(C3CCC(=O)NC3=O)C4=O)cc2)CC1 (stereo not shown) [SIAIS1227099, 3-(4-((4-(2-(4-methylpiperazin-1-yl)ethyl)benzyl)thio)-1-oxoisoindolin-2-yl)piperidine-2,6-dione] | 0.311
CC1(C)[C@@H]2CC[C@@]1(C)[C@@H](NCCCCCCCSc1cccc3c1CN(C1CCC(=O)NC1=O)C3=O)C2 (stereo partly drawn) [SIAIS1221019, 3-(1-oxo-4-((7-(((1R,2S,4R)-1,7,7-trimethylbicyclo[2.2.1]heptan-2-yl)amino)heptyl)thio)isoindolin-2-yl)piperidine-2,6-dione] | 0.007
O=C1CCC(N2Cc3c(SCCCCCN4CCC5(CCCCC5)CC4)cccc3C2=O)C(=O)N1 (stereo not shown) [SIAIS1221123, 3-(4-((5-(3-azaspiro[5.5]undecan-3-yl)pentyl)thio)-1-oxoisoindolin-2-yl)piperidine-2,6-dione] | 0.051
O=C1CCC(N2Cc3c(SCc4ccc(/C=C/Br)cc4)cccc3C2=O)C(=O)N1 (stereo not shown) [SIAIS1224154, (E)-3-(4-((4-(2-bromovinyl)benzyl)thio)-1-oxoisoindolin-2-yl)piperidine-2,6-dione] | 0.809
CN(C)CCCCCCCCSc1cccc2c1CN(C1CCC(=O)NC1=O)C2=O (stereo not shown) [SIAIS1216149, 3-(4-((8-(dimethylamino)octyl)thio)-1-oxoisoindolin-2-yl)piperidine-2,6-dione] | 0.32 ± 0.15
O=C1CCC(N2C(=O)c3cccc(SCc4ccc(CCCN5CCOCC5)cc4)c3C2=O)C(=O)N1 (stereo not shown) [SIAIS1227091, 2-(2,6-dioxopiperidin-3-yl)-4-((4-(3-morpholinopropyl)benzyl)thio) isoindoline-1,3-dione] | 2
O=C1CCC(N2Cc3c(SCc4ccc(CCN5CCCCCCC5)cc4)cccc3C2=O)C(=O)N1 (stereo not shown) [SIAIS1227159, 3-(4-((4-(2-(azocan-1-yl)ethyl)benzyl)thio)-1-oxoisoindolin-2-yl)piperidine-2,6-dione] | 0.02

SMILES | IC50 [nM]
O=C1CCC(N2Cc3c(SCCCCNC45CC6CC(CC(C6)C4)C5)cccc3C2=O)C(=O)N1 (stereo not shown) [SIAIS1222179, 3-(4-((4-((adamantan-1-yl)amino)butyl)thio)-1-oxoisoindolin-2-yl)piperidine-2,6-dione] | 0.074
O=C1CCC(N2Cc3c(SCCCCCCCCSc4cccc5c4CN(C4CCC(=O)NC4=O)C5=O)cccc3C2=O)C(=O)N1 (stereo not shown) [SIAIS1216137B, 3,3′-((octane-1,8-diylbis(sulfanediyl))bis(1-oxoisoindoline-4,2-diyl))bis(piperidine-2,6-dione)] | 1.41
O=C1CCC(N2Cc3c(SCCCCCCCNC(C4CC4)C4CC4)cccc3C2=O)C(=O)N1 (stereo not shown) [SIAIS1224031, 3-(4-((7-((dicyclopropylmethyl)amino)heptyl)thio)-1-oxoisoindolin-2-yl)piperidine-2,6-dione] | 0.105
CC(C)N(Cc1ccc(CSc2cccc3c2CN(C2CCC(=O)NC2=O)C3=O)cc1)C(C)C (stereo not shown) [SIAIS1227057, 3-(4-((4-((diisopropylamino)methyl)benzyl)thio)-1-oxoisoindolin-2-yl)piperidine-2,6-dione] | 0.252
O=C1CCC(N2Cc3c(SCCCNC45CC6CC(CC(C6)C4)C5)cccc3C2=O)C(=O)N1 (stereo not shown) [SIAIS1222177, 3-(4-((3-(adamantan-1-ylamino)propyl)thio)-1-oxoisoindolin-2-yl)piperidine-2,6-dione] | 0.693
O=C1CCC(N2Cc3c(SCc4ccc(CN5CCOCC5)o4)cccc3C2=O)C(=O)N1 (stereo not shown) [SIAIS313126, 3-(4-(((5-(morpholinomethyl)furan-2-yl)methyl)thio)-1-oxoisoindolin-2-yl)piperidine-2,6-dione] | 2.97 ± 0.79
O=C1CCC(N2C(=O)c3cccc(SCCCCCNC45CC6CC(CC(C6)C4)C5)c3C2=O)C(=O)N1 (stereo not shown) [SIAIS1222097, 4-((5-((adamantan-1-yl)amino)pentyl)thio)-2-(2,6-dioxopiperidin-3-yl)isoindoline-1,3-dione] | 0.409
O=C1CCC(N2Cc3c(SCCc4ccc(CNC56CC7CC(CC(C7)C5)C6)cc4)cccc3C2=O)C(=O)N1 (stereo not shown) [SIAIS1224149, 3-(4-((4-(((adamantan-1-yl)amino)methyl)phenethyl)thio)-1-oxoisoindolin-2-yl)piperidine-2,6-dione] | 0.44 ± 0.1
O=C1CCC(N2Cc3c(SCc4ccc(CNC5C6CC7CC(C6)CC5C7)cc4)cccc3C2=O)C(=O)N1 (stereo not shown) [SIAIS1221005, 3-(4-((4-((adamantan-2-ylamino)methyl)benzyl)thio)-1-oxoisoindolin-2-yl)piperidine-2,6-dione] | 0.035 ± 0.007
O=C1CCC(N2Cc3c(SCc4cccc(CN5CCOCC5)c4)cccc3C2=O)C(=O)N1 (stereo not shown) [SIAIS1227137, 3-(4-((3-(morpholinomethyl)benzyl)thio)-1-oxoisoindolin-2-yl)piperidine-2,6-dione] | 1.04 ± 0.49
O=C1CCC(N2Cc3c(SCCCCCCNCC45CC6CC(CC(C6)C4)C5)cccc3C2=O)C(=O)N1 (stereo not shown) [SIAIS1221013, 3-(4-((6-((adamantan-1-ylmethyl)amino)hexyl)thio)-1-oxoisoindolin-2-yl)piperidine-2,6-dione] | 0.028 ± 0.012
CCN(CC)CCNCCCCCCCCSc1cccc2c1CN(C1CCC(=O)NC1=O)C2=O (stereo not shown) [SIAIS1220037, 3-(4-((8-((2-(diethylamino)ethyl)amino)octyl)thio)-1-oxoisoindolin-2-yl)piperidine-2,6-dione] | 0.83 ± 0.39
CC(=O)NCCCCCSc1cccc2c1CN(C1CCC(=O)NC1=O)C2=O (stereo not shown) [SIAIS1216095, N-(5-((2-(2,6-dioxopiperidin-3-yl)-1-oxoisoindolin-4-yl)thio)pentyl)acetamide] | 1.53 ± 0.4
O=C1CCC(N2Cc3c(SCc4ccc(CN5CCCCCCC5)cc4)cccc3C2=O)C(=O)N1 (stereo not shown) [SIAIS1227109, 3-(4-((4-(azocan-1-ylmethyl)benzyl)thio)-1-oxoisoindolin-2-yl)piperidine-2,6-dione] | 0.03 ± 0.004
CCCCCCCCSc1cccc2c1CN(C1CCC(=O)NC1=O)C2=O (stereo not shown) [SIAIS1216025, 3-(4-(octylthio)-1-oxoisoindolin-2-yl)piperidine-2,6-dione] | 2.1 ± 0.67
O=C1CCC(N2Cc3c(SCc4cccc(CN5CCCCC5)c4)cccc3C2=O)C(=O)N1 (stereo not shown) [SIAIS1227131, 3-(1-oxo-4-((3-(piperidin-1-ylmethyl)benzyl)thio)isoindolin-2-yl)piperidine-2,6-dione] | 0.89 ± 0.22
CC(C)N(CCCCCCCCSc1cccc2c1CN(C1CCC(=O)NC1=O)C2=O)C(C)C (stereo not shown) [SIAIS1220021, 3-(4-((8-(diisopropylamino)octyl)thio)-1-oxoisoindolin-2-yl)piperidine-2,6-dione] | 0.16 ± 0.05
CC(NCc1ccc(CSc2cccc3c2CN(C2CCC(=O)NC2=O)C3=O)cc1)C12CC3CC(CC(C3)C1)C2 (stereo not shown) [SIAIS1222157, 3-(4-((4-(((1-(adamantan-1-yl)ethyl)amino)methyl)benzyl)thio)-1-oxoisoindolin-2-yl)piperidine-2,6-dione] | 0.04
